PubChem BioAssay AID256 (DTP/NCI, 2004)
Several values for one entry are separate records, joined by “and”; a condition that tells them apart may be missing. Equal values may be shown once. Inconclusive results and toxic doses are left out.

Test system: CD2F1 mice, L1210 leukemia ip, survival T/C
Assay: NCI In Vivo Anticancer Drug Screen. Data for tumor model L1210 Leukemia (intraperitoneal) in CD2F1 (CDF1) mice
Conditions: higher = longer survival
In short: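 Antitumor effect is scored in animals hosting a serially transplanted tumor. Values compare compound-dosed animals against vehicle-only controls as a simple quotient.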

[1] = endpoint: mean survival time, dose: 50.0 mg/kg/injection, schedule: Q01DX009 (ip), vehicle: saline
[2] = endpoint: mean survival time, dose: 100.0 mg/kg/injection, schedule: Q04DX002 (ip), vehicle: saline with Tween-80
[3] = endpoint: mean survival time, dose: 200.0 mg/kg/injection, schedule: Q04DX002 (ip), vehicle: saline with Tween-80
[4] = endpoint: mean survival time, dose: 400.0 mg/kg/injection, schedule: Q04DX002 (ip), vehicle: saline with Tween-80
[5] = endpoint: mean survival time, dose: 100.0 mg/kg/injection, schedule: Q04DX003 (ip), vehicle: saline with Tween-80
[6] = endpoint: mean survival time, dose: 200.0 mg/kg/injection, schedule: Q04DX003 (ip), vehicle: saline with Tween-80
[7] = endpoint: mean survival time, dose: 400.0 mg/kg/injection, schedule: Q04DX003 (ip), vehicle: saline with Tween-80
[8] = endpoint: mean survival time, dose: 50.0 mg/kg/injection, schedule: Q01DX009 (ip), vehicle: saline with Tween-80
[9] = endpoint: mean survival time, dose: 100.0 mg/kg/injection, schedule: Q01DX009 (ip), vehicle: saline with Tween-80
[10] = endpoint: mean survival time, dose: 200.0 mg/kg/injection, schedule: Q01DX009 (ip), vehicle: saline with Tween-80
[11] = endpoint: mean survival time, dose: 400.0 mg/kg/injection, schedule: Q01DX009 (ip), vehicle: saline with Tween-80
[12] = endpoint: mean survival time, dose: 100.0 mg/kg/injection, schedule: Q04DX003 (ip), vehicle: saline
[13] = endpoint: mean survival time, dose: 200.0 mg/kg/injection, schedule: Q04DX003 (ip), vehicle: saline
[14] = endpoint: mean survival time, dose: 12.5 mg/kg/injection, schedule: Q04DX003 (ip), vehicle: saline with Tween-80
[15] = endpoint: mean survival time, dose: 25.0 mg/kg/injection, schedule: Q04DX003 (ip), vehicle: saline with Tween-80

Oc1c(Cl)c(Cl)c(O)c(Cl)c1Cl
T/C (endpoint: mean survival time, dose: 6.25 mg/kg/injection, schedule: Q01DX001 (ip), vehicle: saline with Tween-80): 98 % of control | T/C (endpoint: mean survival time, dose: 12.5 mg/kg/injection, schedule: Q01DX001 (ip), vehicle: saline with Tween-80): 95 % of control | T/C (endpoint: mean survival time, dose: 25.0 mg/kg/injection, schedule: Q01DX001 (ip), vehicle: saline with Tween-80): 95 % of control

O=C(/C=C(\Cl)C(=O)NO)NO
T/C (endpoint: mean survival time, dose: 6.25 mg/kg/injection, schedule: Q01DX009 (ip), vehicle: saline): 101 % of control and 103 % of control | T/C (endpoint: mean survival time, dose: 12.5 mg/kg/injection, schedule: Q01DX009 (ip), vehicle: saline): 94 % of control and 104 % of control | T/C (endpoint: mean survival time, dose: 25.0 mg/kg/injection, schedule: Q01DX009 (ip), vehicle: saline): 95 % of control and 100 % of control | T/C [1]: 115 % of control and 108 % of control | T/C (endpoint: mean survival time, dose: 100.0 mg/kg/injection, schedule: Q01DX009 (ip), vehicle: saline): 113 % of control and 95 % of control

CCCCNP(=S)(NCCCC)NCCCC
T/C [2]: 94 % of control | T/C [3]: 94 % of control | T/C [4]: 98 % of control

C/C(Cc1ccccc1)=N\O
T/C [5]: 103 % of control | T/C [6]: 100 % of control | T/C [7]: 114 % of control

Nc1nc(N)c2ncn(C3CC(CO)C(O)C3O)c2n1 (stereo not given)
T/C [8]: 89 % of control

COC(=O)Nc1cccc(OS(=O)(=O)N(C)C)c1
T/C [5]: 103 % of control

O=S(=O)(O)SCC1=NCCCCN1
T/C [5]: 101 % of control

Nc1ccccc1Sc1ccncc1[N+](=O)[O-]
T/C [9]: 96 % of control | T/C [5]: 90 % of control | T/C [10]: 100 % of control | T/C [6]: 95 % of control | T/C [11]: 101 % of control | T/C [7]: 97 % of control

COCC(O)CN1CCN(c2ccccc2C)CC1 (stereo not given)
T/C [5]: 93 % of control

CCOP(=O)(Cc1cccc2ccccc12)OCC
T/C (endpoint: mean survival time, dose: 100.0 mg/kg/injection, schedule: Q01DX001 (ip), vehicle: Klucel (hydroxypropylcellulose) (HPC)): 103 % of control | T/C (endpoint: mean survival time, dose: 200.0 mg/kg/injection, schedule: Q01DX001 (ip), vehicle: Klucel (hydroxypropylcellulose) (HPC)): 96 % of control | T/C (endpoint: mean survival time, dose: 400.0 mg/kg/injection, schedule: Q01DX001 (ip), vehicle: Klucel (hydroxypropylcellulose) (HPC)): 100 % of control

O=S(=O)(O)CN(CCN(CS(=O)(=O)O)CS(=O)(=O)O)CS(=O)(=O)O
T/C (endpoint: mean survival time, dose: 100.0 mg/kg/injection, schedule: Q01DX009 (ip), vehicle: saline sonified): 96 % of control | T/C [12]: 109 % of control | T/C (endpoint: mean survival time, dose: 200.0 mg/kg/injection, schedule: Q01DX009 (ip), vehicle: saline sonified): 92 % of control | T/C [13]: 97 % of control | T/C (endpoint: mean survival time, dose: 400.0 mg/kg/injection, schedule: Q01DX009 (ip), vehicle: saline sonified): 91 % of control | T/C (endpoint: mean survival time, dose: 400.0 mg/kg/injection, schedule: Q04DX003 (ip), vehicle: saline): 97 % of control

CCC(C)(CC(=O)OC)C(=O)OC (stereo not given)
T/C (endpoint: mean survival time, dose: 100.0 mg/kg/injection, schedule: Q01DX001 (ip), vehicle: saline): 108 % of control | T/C (endpoint: mean survival time, dose: 200.0 mg/kg/injection, schedule: Q01DX001 (ip), vehicle: saline): 104 % of control | T/C (endpoint: mean survival time, dose: 400.0 mg/kg/injection, schedule: Q01DX001 (ip), vehicle: saline): 108 % of control

Cc1c2c(O)c(O)c(O)cc2c[n+]2ccccc12
T/C [1]: 101 % of control

NC(Cc1ccccc1)C(=O)OCN1C(=O)C2C3C=CC(C2C1=O)C1C2C(=O)N(COC(=O)C(N)Cc4ccccc4)C(=O)C2C31 (stereo not given)
T/C (endpoint: median survival time, dose: 21.6 mg/kg/injection, schedule: Q01DX009 (ip), vehicle: water): 116 % of control | T/C (endpoint: median survival time, dose: 36.0 mg/kg/injection, schedule: Q01DX009 (ip), vehicle: water): 117 % of control | T/C (endpoint: median survival time, dose: 100.0 mg/kg/injection, schedule: Q01DX009 (ip), vehicle: water): 188 % of control

O=S(=O)(O)O.[NH-]CC1(C[NH-])CCCCC1.[Pt+2]
T/C (endpoint: mean survival time, dose: 25.0 mg/kg/injection, schedule: Q04DX003 (ip), vehicle: saline): 96 % of control | T/C (endpoint: median survival time, dose: 15.98 mg/kg/injection, schedule: Q04DX003 (ip), vehicle: dextrose): 108 % of control | T/C (endpoint: median survival time, dose: 18.0 mg/kg/injection, schedule: Q04DX003 (ip), vehicle: dextrose): 93 % of control | T/C (endpoint: median survival time, dose: 24.0 mg/kg/injection, schedule: Q04DX003 (ip), vehicle: dextrose): 105 % of control

C[N+](C)=CN1c2ccccc2Sc2ccccc21
T/C [9]: 97 % of control | T/C [10]: 103 % of control

O=[As](c1ccccc1Br)(c1ccccc1Br)c1ccccc1Br
T/C (endpoint: mean survival time, dose: 50.0 mg/kg/injection, schedule: Q04DX003 (ip), vehicle: saline): 101 % of control | T/C [12]: 100 % of control | T/C [13]: 95 % of control

N#CC1(NC(=O)N(CCCl)N=O)CCCCC1
T/C (endpoint: mean survival time, dose: 6.25 mg/kg/injection, schedule: Q01DX001 (ip), vehicle: distilled water + Tween-80): 119 % of control and 108 % of control | T/C (endpoint: mean survival time, dose: 25.0 mg/kg/injection, schedule: Q01DX001 (ip), vehicle: distilled water + Tween-80): 150 % of control | T/C (endpoint: mean survival time, dose: 50.0 mg/kg/injection, schedule: Q01DX001 (ip), vehicle: distilled water + Tween-80): 172 % of control and 258 % of control

c1cncc(-c2nc3ccccc3s2)c1
T/C (endpoint: mean survival time, dose: 100.0 mg/kg/injection, schedule: Q04DX003 (ip), vehicle: Klucel (hydroxypropylcellulose) (HPC)): 103 % of control | T/C (endpoint: mean survival time, dose: 200.0 mg/kg/injection, schedule: Q04DX003 (ip), vehicle: Klucel (hydroxypropylcellulose) (HPC)): 100 % of control | T/C (endpoint: mean survival time, dose: 400.0 mg/kg/injection, schedule: Q04DX003 (ip), vehicle: Klucel (hydroxypropylcellulose) (HPC)): 100 % of control

Nc1nc2c(c(=O)[nH]1)N1CCN(c3ccc(C(=O)NC(CCC(=O)O)C(=O)O)cc3)CC1CN2 (stereo not given)
T/C (endpoint: mean survival time, dose: 100.0 mg/kg/injection, schedule: Q01DX001 (ip), vehicle: sodium bicarbonate): 100 % of control | T/C (endpoint: mean survival time, dose: 200.0 mg/kg/injection, schedule: Q01DX001 (ip), vehicle: sodium bicarbonate): 100 % of control | T/C (endpoint: mean survival time, dose: 400.0 mg/kg/injection, schedule: Q01DX001 (ip), vehicle: sodium bicarbonate): 86 % of control

N#Cc1c(N)[nH]c2ccc(Sc3ccccc3)cc12
T/C (endpoint: median survival time, dose: 6.25 mg/kg/injection, schedule: Q01DX005 (ip), vehicle: saline with Tween-80): 108 % of control | T/C (endpoint: median survival time, dose: 12.5 mg/kg/injection, schedule: Q01DX005 (ip), vehicle: saline with Tween-80): 101 % of control and 109 % of control | T/C (endpoint: median survival time, dose: 25.0 mg/kg/injection, schedule: Q01DX005 (ip), vehicle: saline with Tween-80): 102 % of control and 112 % of control | T/C (endpoint: median survival time, dose: 43.0 mg/kg/injection, schedule: Q01DX005 (ip), vehicle: saline with Tween-80): 112 % of control | T/C (endpoint: median survival time, dose: 43.2 mg/kg/injection, schedule: Q01DX005 (ip), vehicle: saline with Tween-80): 117 % of control | T/C (endpoint: median survival time, dose: 50.0 mg/kg/injection, schedule: Q01DX005 (ip), vehicle: saline with Tween-80): 123 % of control and 110 % of control | T/C (endpoint: median survival time, dose: 100.0 mg/kg/injection, schedule: Q01DX005 (ip), vehicle: saline with Tween-80): 101 % of control | T/C (endpoint: median survival time, dose: 120.0 mg/kg/injection, schedule: Q01DX005 (ip), vehicle: saline with Tween-80): 153 % of control and 164 % of control

C=CCCCCCCCCC(=O)NC(C)COC (stereo not given)
T/C (endpoint: mean survival time, dose: 100.0 mg/kg/injection, schedule: Q01DX001 (ip), vehicle: saline with Tween-80): 107 % of control | T/C (endpoint: mean survival time, dose: 200.0 mg/kg/injection, schedule: Q01DX001 (ip), vehicle: saline with Tween-80): 98 % of control

CC(=O)n1cc(F)c(=O)[nH]c1=O
T/C (endpoint: mean survival time, dose: 16.5 mg/kg/injection, schedule: Q01DX009 (ip), vehicle: saline): 172 % of control | T/C (endpoint: mean survival time, dose: 25.0 mg/kg/injection, schedule: Q01DX009 (ip), vehicle: saline with Tween-80): 169 % of control | T/C [8]: 105 % of control

CCCCCCCCCCCCCC[n+]1ccc(C(N)=O)cc1
T/C [14]: 107 % of control | T/C [15]: 107 % of control

O=C(COc1ccccc1[N+](=O)[O-])CN1C(=O)c2ccccc2C1=O
T/C [2]: 91 % of control | T/C [3]: 91 % of control | T/C [4]: 91 % of control

C=CC[As](=O)(O)c1ccccc1Cl
T/C (endpoint: mean survival time, dose: 6.25 mg/kg/injection, schedule: Q04DX003 (ip), vehicle: saline with Tween-80): 98 % of control | T/C [14]: 105 % of control | T/C [15]: 104 % of control

[Cl][Gd]([Cl])[Cl]
T/C [9]: 92 % of control | T/C [10]: 94 % of control

CC1(OO)OOC(=O)C1(C)C (stereo not given)
T/C (endpoint: mean survival time, dose: 6.25 mg/kg/injection, schedule: Q04DX002 (ip), vehicle: saline with Tween-80): 90 % of control | T/C (endpoint: mean survival time, dose: 12.5 mg/kg/injection, schedule: Q04DX002 (ip), vehicle: saline with Tween-80): 93 % of control | T/C (endpoint: mean survival time, dose: 25.0 mg/kg/injection, schedule: Q04DX002 (ip), vehicle: saline with Tween-80): 96 % of control

O=C(NCCSC(=O)Nc1ccccc1)Nc1ccccc1
T/C [9]: 95 % of control | T/C [10]: 94 % of control | T/C [11]: 94 % of control

C=CCOc1ccc(OC)cc1
T/C [5]: 97 % of control | T/C [6]: 97 % of control | T/C [7]: 92 % of control
